From ChEMBL document CHEMBL3877311, “Discovery of a novel series of N-hydroxypyridone derivatives protecting astrocytes against hydrogen peroxide-induced toxicity via improved mitochondrial functionality” (Bioorg Med Chem, 2017)
The source made the active and inactive calls. No cut-off for these calls is given here.

Key:
Astrocyte [1] = experiment: Inhibition of H2O2-induced mitochondrial metabolic dysfunction in Sprague-Dawley rat primary astrocytes at 0.001 to 10 uM by resazurin-dye based presto blue assay relative to control; assay type: functional
Astrocyte [2] = experiment: Inhibition of H2O2-induced mitochondrial metabolic dysfunction in Sprague-Dawley rat primary astrocytes by resazurin-dye based presto blue assay; assay type: functional, cell-based
[3] = Cytoprotective activity in Sprague-Dawley rat primary astrocytes assessed as inhibition of H2O2-induced cell death by LDH release assay; assay type: functional, cell-based; conditions: Astrocyte
[4] = Cytoprotective activity in Sprague-Dawley rat primary astrocytes assessed as inhibition of H2O2-induced cell death at 0.001 to 10 uM by LDH release assay relative to control; assay type: functional, Astrocyte
Rattus norvegicus = species: Rattus norvegicus; experiment: Cytotoxicity against Sprague-Dawley rat primary astrocytes assessed as cell death up to 10 uM by LDH release assay; assay type: toxicity; conditions: astrocyte
Astrocyte [5] = experiment: Cytoprotective activity in Sprague-Dawley rat primary astrocytes assessed as inhibition of H2O2-induced mitochondrial membrane depolarization at 1 uM measured every 5 mins for 2 hrs by TMRM dye based fluorescence assay; assay type: functional, cell-based
[6] = Induction of mitochondrial membrane depolarization in Sprague-Dawley rat primary astrocytes at 1 uM measured every 5 mins for 2 hrs by TMRM dye based fluorescence assay; assay type: cell-based; conditions: astrocyte
[7] = Effect on ATP turn over-linked oxygen consumption rate in Sprague-Dawley rat primary astrocytes at 1 uM; assay type: ADME, cell-based; conditions: astrocyte
[8] = Effect on basal oxygen consumption rate in Sprague-Dawley rat primary astrocytes at 1 uM; assay type: ADME, cell-based; conditions: astrocyte
[9] = Effect on basal extracellular acidification rate in Sprague-Dawley rat primary astrocytes at 1 uM; assay type: ADME, cell-based; conditions: astrocyte
Astrocyte [10] = experiment: Cytoprotective activity in Sprague-Dawley rat primary astrocytes assessed as inhibition of H2O2-induced decrease in oxygen consumption rate at 1 uM; assay type: functional, cell-based
Astrocyte [11] = experiment: Inhibition of H2O2-induced mitochondrial metabolic dysfunction in Sprague-Dawley rat primary astrocytes assessed as stimulation of extracellular acidification rate at 1 uM; assay type: functional, cell-based
Astrocyte [12] = experiment: Inhibition of H2O2-induced mitochondrial metabolic dysfunction in Sprague-Dawley rat primary astrocytes assessed as stimulation of glycolytic metabolism at 1 uM; assay type: functional, cell-based

SMILES | Imax (Astrocyte [1]) [%] | IC50 (Astrocyte [2]) [nM] | IC50 [3] [nM] | Imax [4] [%] | Activity (Rattus norvegicus) | inhibition (Astrocyte [5]) | Activity [6] | Activity [7] | Activity [8] | Activity [9] | inhibition (Astrocyte [10]) | inhibition (Astrocyte [11]) | inhibition (Astrocyte [12])
Cc1cc(-c2cccc(F)c2)n(O)c(=O)c1 | 0.75 |  |  |  |  |  |  |  |  |  |  |  | 
COc1ccccc1-c1ccc(-c2cc(C)cc(=O)n2O)cc1 | 58.6 | 340 | 156 | 58.8 | Non-Toxic | Active | Non-Toxic | Non-Toxic | Non-Toxic | Non-Toxic | Active | Active | Active
Cc1cc(C2CCCCC2)n(O)c(=O)c1 [CICLOPIROX] | 43.72 | 330 | 250 | 50.3 |  | Active |  |  |  |  |  |  | 
